According to patent publication US9243020B2, “Selective glycosidase inhibitors and uses thereof” (priority 2010, dated 2016):

Experiments:
human O-GlcNAcase = human O-GlcNAcase (Homo sapiens (Human), UniProt O60502); assay: Assay for determination of Ki values for inhibition of O-GlcNAcase activity (fluorescence-based); format: biochemical; conditions: purified human O-GlcNAcase 0.7 nM, 2 mM 4-methylumbelliferyl N-acetyl-β-D-glucosaminide, pH 7.0, Cheng-Prusoff; read-out: Fluorescence-based hOGA Ki
Experimental: Experimental procedure for kinetic analyses: Enzymatic reactions were carried out in a reaction containing 50 mM NaH2PO4, 100 mM NaCl and 0.1% BSA (pH 7.0) using 2 mM 4-Methylumbelliferyl N-acetyl-β-D-glucosaminide dihydrate (Sigma M2133) dissolved in ddH2O, as a substrate. The amount of purified human O-GlcNAcase enzyme used in the reaction was 0.7 nM. Test compound of varying concentrations was added to the enzyme prior to initiation of the reaction. The reaction was performed at room temperature in a 96-well plate and was initiated with the addition of substrate. […] The slope of product production was determined for each concentration of compound tested and plotted, using standard curve fitting algorithms for sigmoidal dose response curves. The values for a four parameter logistic curve fit of the data were determined.

[1] = test system: O-GlcNAcylated protein in rat PC-12 cells; assay: Cell-based ELISA for cellular activity of O-GlcNAcase inhibitors (RL-2 antibody); conditions: 24 h treatment, increase in O-GlcNAcylated protein detected with RL-2 antibody
Source text: Inhibition of O-GlcNAcase, which removes O-GlcNAc from cellular proteins, results in an increase in the level of O-GlcNAcylated protein in cells. An increase in O-GlcNAcylated protein can be measured by an antibody, such as RL-2, that binds to O-GlcNAcylated protein. The amount of O-GleNAcylated protein:RL2 antibody interaction can be measured by enzyme linked immunosorbant assay (ELISA) procedures.
A variety of tissue culture cell lines, expressing endogenous levels of O-GlcNAcase, can be utilized; examples include rat PC-12, and human U-87, or SK-N-SH cells. In this assay,rat PC-12 cells were plated in 96-well plates with approximately 10,000 cells/well. Compounds to be tested were dissolved in DMSO, either 2 or 10 mM stock solution, and then diluted with DMSO and water in a two-step process using a Tecan workstation. […] To prepare a cell lysate, the media from compound treated cells was removed, the cells were washed once with phosphate buffered saline (PBS) and then lysed for 5 minutes at room temperature in 50 μL of Phosphosafe reagent (Novagen Inc, Madison, Wis.) with protease inhibitors and PMSF. The cell lysate was collected and transferred to a new plate, which was then either coated to assay plates directly or frozen −80° C. until used in the ELISA procedure. If desired, the total protein concentration of samples was determined using 20 μL of the sample using the BCA method.
The ELISA portion of the assay was performed in a black Maxisorp 96-well plate that was coated overnight at 4° C. with 100 μL/well of the cell lysate (1:10 dilution of the lysate with PBS containing protease inhibitors, phosphatase inhibitors, and PMSF). The following day the wells were washed 3 times with 300 μL/well of Wash buffer (Tris-buffered saline with 0.1% Tween 20). The wells were blocked with 100 μl/well Blocking buffer (Tris buffered saline w/0.05% Tween 20 and 2.5% Bovine serum albumin). Each well was then washed two times with 300 μL/well of wash buffer. […] The plate was sealed and incubated at 37° C. for 2 h with gentle shaking. The wells were then washed 3-times with 300 μL/well wash buffer. […] The plate was incubated for 60 min at 37° C. with gentle shaking. Each well was then washed 3-times with 300 μL/well wash buffer. The detection reagent was added, 100 μL/well of Amplex Ultra RED reagent (prepared by adding 30 μL of 10 mM Amplex Ultra Red stock solution to 10 mL PBS with 18 μL 3% hydrogen peroxide, H2O2). The detection reaction was incubated for 15 minutes at room temperature and then read with excitation at 530 nm and emission at 590 nm.
The amount of O-GlcNAcylated protein, as detected by the ELISA assay, was plotted for each concentration of test compound using standard curve fitting algorithms for sigmoidal dose response curves. The values for a four parameter logistic curve fit of the data were determined, with the inflection point of the curve being the potency value for the test compound.

[2] = Assay for determination of apparent permeability (Papp), bi-directional transport; format: in vitro ADME; conditions: pig, LLC-PK1; 1 μM test compound, t=3 h, average of A to B and B to A; read-out: Papp LLC-PK-1 cells
Experimental: Bi-directional transport was evaluated in LLC-PK1 cells in order to determine apparent permeability (Papp). LLC-PK1 cells can form a tight monolayer and therefore can be used to assess vectorial transport of compounds from basolateral to apical (B→A) and from apical to basolateral (A→B).
To determine Papp, LLC-PK1 cells were cultured in 96-well transwell culture plates (Millipore). Solutions containing the test compounds (1 μM) were prepared in Hank's Balanced Salt Solution with 10 mM HEPES. Substrate solution (150 μL) was added to either the apical (A) or the basolateral (B) compartment of the culture plate, and buffer (150 μL) was added to the compartment opposite to that containing the compound. At t=3 h, 50 μL samples were removed from both sides of monolayers dosed with test compound and placed in 96 well plates, scintillant (200 μL) or internal standard (100 μL labetolol 104) was added to the samples and concentration was determined by liquid scintillation counting in a MicroBeta Wallac Trilux scintillation counter (Perkin Elmer Life Sciences, Boston, Mass.) or by LCMS/MS (Applied Biosystems SCIEX API 5000 triple quadruple mass spectrometer). [^3H]Verapamil (1 μM) was used as the positive control. The experiment was performed in triplicate.
The apparent permeability, Papp, was calculated by the following formula for samples taken at t=3 h:
[formula] Where: Volume of Receptor Chamber was 0.15 mL; Area of membrane was 0.11 cm^2; the Initial Concentration is the sum of the concentration measured in the donor plus concentration measured in receiver compartments at t=3 h; Δ in Concentration is concentration in the receiver compartment at 3 h; and Δ in Time is the incubation time (3×60×60=10800 s). Papp was expressed as 10^−6 cm/s. The Papp (LLC-PK1 cells) are the average of the Papp for transport from A to B and Papp for transport from B to A at t=3 h: […]

human O-GlcNAcase, sequence (O60502 whole entry): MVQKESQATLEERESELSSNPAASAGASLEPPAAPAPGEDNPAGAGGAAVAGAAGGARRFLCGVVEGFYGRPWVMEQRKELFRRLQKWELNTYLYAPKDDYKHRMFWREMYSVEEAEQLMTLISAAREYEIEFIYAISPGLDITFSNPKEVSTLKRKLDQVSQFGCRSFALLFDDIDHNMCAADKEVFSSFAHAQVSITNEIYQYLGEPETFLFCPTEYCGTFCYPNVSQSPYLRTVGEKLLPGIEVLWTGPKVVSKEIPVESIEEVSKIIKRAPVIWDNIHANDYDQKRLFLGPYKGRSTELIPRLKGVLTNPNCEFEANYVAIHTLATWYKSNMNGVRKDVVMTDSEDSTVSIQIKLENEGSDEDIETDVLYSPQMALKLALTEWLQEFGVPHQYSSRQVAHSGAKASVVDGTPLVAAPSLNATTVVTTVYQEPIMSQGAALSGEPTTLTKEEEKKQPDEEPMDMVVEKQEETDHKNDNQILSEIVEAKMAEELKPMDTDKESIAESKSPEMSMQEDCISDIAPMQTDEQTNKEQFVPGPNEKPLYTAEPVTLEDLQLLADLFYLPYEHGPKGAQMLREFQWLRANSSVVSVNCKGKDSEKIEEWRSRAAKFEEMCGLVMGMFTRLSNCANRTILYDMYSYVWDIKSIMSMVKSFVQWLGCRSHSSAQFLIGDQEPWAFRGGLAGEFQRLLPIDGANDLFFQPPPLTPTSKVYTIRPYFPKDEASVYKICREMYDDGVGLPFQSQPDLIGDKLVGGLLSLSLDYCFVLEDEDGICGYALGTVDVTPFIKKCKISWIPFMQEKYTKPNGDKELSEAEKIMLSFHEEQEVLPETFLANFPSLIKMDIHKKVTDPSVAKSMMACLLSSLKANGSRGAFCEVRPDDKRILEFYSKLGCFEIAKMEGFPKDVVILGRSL

SMILES	Ki (human O-GlcNAcase) [nM]	EC50 [1] [nM]	Papp at 3 h, 1 μM [2] [×10⁻⁶ cm/s]
CNC1=N[C@@H]2[C@@H](O)[C@H](O)[C@@H](CF)O[C@@H]2S1 [Example 17, (3aR,5S,6S,7R,7aR)-5-(fluoromethyl)-2-(methylamino)-5,6,7,7a-tetrahydro-3aH-pyrano[3,2-d]thiazole-6,7-diol]	0.5	34	7.1
CN(C)C1=N[C@@H]2[C@@H](O)[C@H](O)[C@@H](CO)O[C@@H]2S1 [(3aR,5R,6S,7R,7aR)-2-(dimethylamino)-5-(hydroxymethyl)-5,6,7,7a-tetrahydro-3aH-pyrano[3,2-d]thiazole-6,7-diol, reference compound]	0.3	10	< 1
CCNC1=N[C@@H]2C[C@H](O)[C@@H](CO)O[C@@H]2S1 [Example 2, (3aR,5R,6S,7aR)-2-(ethylamino)-5-(hydroxymethyl)-5,6,7,7a-tetrahydro-3aH-pyrano[3,2-d]thiazol-6-ol]	–	–	3.8
CCNC1=N[C@@H]2[C@@H](O)[C@H](O)[C@@H](C)O[C@@H]2S1 [Example 1, (3aR,5R,6S,7R,7aR)-2-(ethylamino)-5-methyl-5,6,7,7a-tetrahydro-3aH-pyrano[3,2-d]thiazole-6,7-diol]	70	–	–
CCNC1=N[C@@H]2[C@@H](O)[C@H](O)[C@@H](CO)O[C@@H]2S1 [(3aR,5R,6S,7R,7aR)-2-(ethylamino)-5-(hydroxymethyl)-5,6,7,7a-tetrahydro-3aH-pyrano[3,2-d]thiazole-6,7-diol, reference compound]	–	–	< 1
CN(C)C1=N[C@@H]2[C@@H](O)[C@H](O)[C@@H](C(F)F)O[C@@H]2S1 [Example 20, (3aR,5S,6S,7R,7aR)-5-(difluoromethyl)-2-(dimethylamino)-5,6,7,7a-tetrahydro-3aH-pyrano[3,2-d]thiazole-6,7-diol]	1.4	6	13.7
CNC1=N[C@@H]2[C@H](F)[C@H](O)[C@@H](C(F)F)O[C@@H]2S1 [Example 33, (3aR,5S,6R,7S,7aR)-5-(difluoromethyl)-7-fluoro-2-(methylamino)-5,6,7,7a-tetrahydro-3aH-pyrano[3,2-d]thiazol-6-ol]	13	–	20.1
CNC1=N[C@@H]2C[C@H](O)[C@@H](C(F)F)O[C@@H]2S1 [Example 27, (3aR,5S,6S,7aR)-5-(difluoromethyl)-2-(methylamino)-5,6,7,7a-tetrahydro-3aH-pyrano[3,2-d]thiazol-6-ol]	28	–	24
CCNC1=N[C@@H]2[C@@H](O)[C@@H](O)[C@@H](C(F)F)O[C@@H]2S1 [Example 29, (3aR,5S,6R,7R,7aR)-5-(difluoromethyl)-2-(ethylamino)-5,6,7,7a-tetrahydro-3aH-pyrano[3,2-d]thiazole-6,7-diol]	164	–	–
CNC1=N[C@@H]2[C@@H](F)[C@H](O)[C@@H](CO)O[C@@H]2S1 [Example 9, (3aR,5R,6R,7R,7aR)-7-fluoro-5-(hydroxymethyl)-2-(methylamino)-5,6,7,7a-tetrahydro-3aH-pyrano[3,2-d]thiazol-6-ol]	1.3	307	–
CCNC1=N[C@@H]2[C@@H](O)[C@H](O)[C@@H](C(F)F)O[C@@H]2S1 [Example 19, (3aR,5S,6S,7R,7aR)-5-(difluoromethyl)-2-(ethylamino)-5,6,7,7a-tetrahydro-3aH-pyrano[3,2-d]thiazole-6,7-diol]	5.7	53	6
